The values below come from article PMC6259253, “Synthesis of Benzofuran Derivatives via Rearrangement and Their Inhibitory Activity on Acetylcholinesterase” (Molecules, 2010).

The structures appear in SMILES notation.

This experiment addresses T1, AChE (Rattus norvegicus, UniProt P37136).
T1 construct: utilizing freshly prepared AChE from rats brain homogenate; from tissue; host or cells: rat whole brain except cerebellum, homogenate
Description: biochemical. To be noted: AChE from rat brain homogenate; Ellman's method; means ± standard deviation of three independent experiments; read-out: AChE inhibition (IC50). How it is done:
AChE activity was measured in duplicate by the spectrophotometric method reported by Ellman et al. with some modifications, mainly involving the source of the enzyme and the reference compound. Rat brain homogenate was used as the enzyme source. The whole brain except for the cerebellum was homogenized in nine volumes of 100 mM sodium phosphate buffer (pH 7.0). The test compounds were dissolved in dimethyl sulphoxide (DMSO). The AChE activity was expressed as a change in OD at 412 nm.
(In general: Ellman's reagent forms a yellow product with free thiols.)

T1 sequence (P37136 32-614): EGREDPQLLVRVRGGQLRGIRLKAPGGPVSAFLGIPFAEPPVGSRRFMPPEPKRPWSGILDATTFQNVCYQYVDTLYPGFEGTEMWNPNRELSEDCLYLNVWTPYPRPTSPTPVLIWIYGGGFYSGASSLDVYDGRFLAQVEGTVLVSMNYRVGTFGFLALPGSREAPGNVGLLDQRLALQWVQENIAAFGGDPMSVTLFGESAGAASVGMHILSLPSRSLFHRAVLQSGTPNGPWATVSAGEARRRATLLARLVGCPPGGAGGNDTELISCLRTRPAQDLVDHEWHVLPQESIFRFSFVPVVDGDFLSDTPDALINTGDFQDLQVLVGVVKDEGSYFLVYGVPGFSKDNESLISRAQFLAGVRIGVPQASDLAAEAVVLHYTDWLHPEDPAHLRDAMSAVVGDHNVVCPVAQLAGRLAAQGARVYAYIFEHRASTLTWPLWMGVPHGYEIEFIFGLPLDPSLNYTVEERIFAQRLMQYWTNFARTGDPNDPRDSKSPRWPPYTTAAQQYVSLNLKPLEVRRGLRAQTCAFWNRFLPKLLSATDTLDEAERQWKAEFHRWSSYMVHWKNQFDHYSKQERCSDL

A word on the IC50: it is the concentration that gives 50% inhibition. Turning to `COc1ccc(N2CCN(C(=O)c3oc4ccc(C)cc4c3N3CCOCC3)CC2)cc1` [Compound A5, (4-(4-Methoxyphenyl)piperazin-1-yl) (5-methyl-3-morpholinobenzofuran-2-yl) methanone], the concentration for half-maximal inhibition (IC50) worked out at 21 ± 0.1 µM.
With `Cc1ccc2oc(C(=O)N3CCN(c4ccccc4C)CC3)c(N3CCOCC3)c2c1` [Compound A2, (4-o-Tolylpiperazin-1-yl)-(5-methyl-3-morpholinobenzofuran-2-yl) methanone] the figure was 32 ± 0.1 µM; with `Cc1ccc(N2CCN(C(=O)c3oc4ccc(C)cc4c3N3CCOCC3)CC2)cc1` [Compound A4, (4-p-Tolylpiperazin-1-yl)-(5-methyl-3-morpholinobenzofuran-2-yl) methanone], 11 ± 0.2 µM.
